Calls of active or inactive are those of the source.
Tests used:
[1] = target: T1, Nucleotide-binding oligomerization domain-containing protein 1 (Homo sapiens, UniProt Q9Y239); test: SAR analysis of compounds that inhibit NOD1 - Set 2. [Related pubchem assays (depositor defined):AID1566, AID1575, AID1578, AID1849, AID1852, AID2333, AID2335, AID2798]; type: functional
T1 sequence (Q9Y239 whole entry): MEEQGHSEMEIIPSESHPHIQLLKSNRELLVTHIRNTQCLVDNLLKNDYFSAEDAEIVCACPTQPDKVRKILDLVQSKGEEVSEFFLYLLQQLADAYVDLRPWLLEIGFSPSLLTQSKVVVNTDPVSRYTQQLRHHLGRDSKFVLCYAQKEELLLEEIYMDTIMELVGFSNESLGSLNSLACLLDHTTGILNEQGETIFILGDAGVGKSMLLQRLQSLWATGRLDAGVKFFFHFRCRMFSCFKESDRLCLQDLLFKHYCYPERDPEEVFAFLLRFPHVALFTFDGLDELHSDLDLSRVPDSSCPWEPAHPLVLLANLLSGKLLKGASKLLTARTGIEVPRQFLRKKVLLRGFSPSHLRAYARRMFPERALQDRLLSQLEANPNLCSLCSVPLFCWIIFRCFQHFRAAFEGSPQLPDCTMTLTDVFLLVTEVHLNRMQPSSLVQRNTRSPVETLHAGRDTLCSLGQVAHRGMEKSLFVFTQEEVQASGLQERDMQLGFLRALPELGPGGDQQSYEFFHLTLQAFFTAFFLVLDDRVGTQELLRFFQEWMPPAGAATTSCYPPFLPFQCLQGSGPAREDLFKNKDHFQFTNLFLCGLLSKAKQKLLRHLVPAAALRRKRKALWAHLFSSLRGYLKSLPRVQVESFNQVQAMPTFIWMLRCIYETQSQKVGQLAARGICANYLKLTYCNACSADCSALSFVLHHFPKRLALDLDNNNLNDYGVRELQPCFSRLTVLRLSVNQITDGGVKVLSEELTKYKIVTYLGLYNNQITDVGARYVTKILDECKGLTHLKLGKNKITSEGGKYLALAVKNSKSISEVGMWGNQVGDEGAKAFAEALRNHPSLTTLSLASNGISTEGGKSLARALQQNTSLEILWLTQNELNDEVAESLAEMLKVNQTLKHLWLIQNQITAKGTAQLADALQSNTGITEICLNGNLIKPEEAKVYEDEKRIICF

HEK293 = test: SAR analysis of compounds that are cytotoxic to HEK293 - Set 2. [Related pubchem assays (depositor defined):AID1575, AID1578, AID1849, AID2001, AID2333, AID2334, AID2335, AID2337, AID2800]; type: functional, cell-based; settings: Homo sapiens
[2] = control 3'UTR Renilla luciferase suppression, dose response, counter-screen for Shn3 inhibitor project, cell-based, Clone20-Shn3RL, cherry-picked (AID 624133); type: functional
[3] = Shn3 3'UTR reporter inhibitors, dose response, cell-based, Clone20 osteoblasts, firefly luciferase, cherry-picked (AID 624132); type: functional;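 also: firefly luciferase luminescence from reporter carrying the Shn3 3'UTR in osteoblasts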
[4] = target: T1, Nucleotide-binding oligomerization domain-containing protein 1; test: SAR analysis of NF-kappaB dependent luciferase using DAP as an inducer - Set 2. [Related pubchem assays (depositor defined):AID1566, AID1575, AID1578, AID1579, AID1849, AID1852, AID2264]; type: functional
[5] = THP-1 cell cytotoxicity, dose response, cytotoxicity control for non-replicating M. tuberculosis project (AID 489025); type: functional
Interleukin-8 = target: T2, Interleukin-8 (Homo sapiens, UniProt P10145); test: SAR analysis of Tumor necrosis factor alpha (TNF-alpha) induced IL-8 secretion in MCF-7/NOD1 cells - Set 2. [Related pubchem assays (depositor defined):AID1575, AID2250, AID2260]; type: functional, cell-based
T2 sequence (P10145 whole entry): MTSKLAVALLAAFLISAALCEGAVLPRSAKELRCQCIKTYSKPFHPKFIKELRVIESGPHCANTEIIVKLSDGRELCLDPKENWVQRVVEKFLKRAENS

[6] = HEK293T cell cytotoxicity, dose response, cytotoxicity control for HIV Vif inhibitor project, cherry-picks (AID 652208); type: functional, cell-based
Beta Lactamase = Beta Lactamase (Pseudomonas aeruginosa, UniProt Q932Y6); test: beta-lactamase reporter inhibitor potency, dose response, artefact control for TLR9-MyD88 binding inhibitor project, BLA reporter cells, FRET fluorescence (AID 588341); type: cell-based;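 also: cell based assay in CHO-K1 cells stably expressing beta-lactamase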
Sequence of Beta Lactamase (Q932Y6 whole entry): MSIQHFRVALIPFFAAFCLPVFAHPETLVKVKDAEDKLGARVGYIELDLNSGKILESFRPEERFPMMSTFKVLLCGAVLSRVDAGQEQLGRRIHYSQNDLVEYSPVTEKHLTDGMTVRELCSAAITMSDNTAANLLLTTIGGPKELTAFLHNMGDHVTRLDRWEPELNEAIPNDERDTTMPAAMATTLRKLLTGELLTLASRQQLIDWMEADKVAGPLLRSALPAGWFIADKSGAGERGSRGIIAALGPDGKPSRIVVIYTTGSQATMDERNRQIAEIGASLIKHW

Paired box protein Pax-8 = Paired box protein Pax-8 (Homo sapiens, UniProt Q06710); test: inhibitors of PAX8-driven TPO luciferase reporter, dose response, RMG-I cells, cherry-pick (AID 687027); type: functional, cell-based;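 also: luciferase reporter driven by Pax8 target thyroperoxidase promoter measured by SteadyGlo luminescence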
Sequence of Paired box protein Pax-8 (Q06710 whole entry): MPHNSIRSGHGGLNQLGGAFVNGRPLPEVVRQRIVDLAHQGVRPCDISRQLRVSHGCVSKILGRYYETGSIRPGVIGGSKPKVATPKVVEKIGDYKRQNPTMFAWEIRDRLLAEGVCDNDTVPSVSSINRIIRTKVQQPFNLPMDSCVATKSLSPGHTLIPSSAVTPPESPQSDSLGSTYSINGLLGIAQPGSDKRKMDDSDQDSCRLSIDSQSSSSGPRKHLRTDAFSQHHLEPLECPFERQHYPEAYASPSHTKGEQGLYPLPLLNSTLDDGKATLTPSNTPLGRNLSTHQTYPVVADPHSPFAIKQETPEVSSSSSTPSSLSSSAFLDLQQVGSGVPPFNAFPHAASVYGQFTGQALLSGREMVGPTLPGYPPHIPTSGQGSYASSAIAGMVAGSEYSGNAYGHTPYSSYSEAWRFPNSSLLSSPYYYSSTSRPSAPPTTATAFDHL

[7] = Vero E6 cell cytotoxicity, dose response, cytotoxicity control for non-replicating M. tuberculosis project, secondary assay (AID 492998); type: functional, VeroE6; settings: Vero C1008
[8] = target: Transitional endoplasmic reticulum ATPase (Homo sapiens, UniProt P55072); test: p97 ATPase inhibitors, dose response, biochemical (AID 1534)
Sequence of Transitional endoplasmic reticulum ATPase (Homo sapiens, UniProt P55072) (P55072 whole entry): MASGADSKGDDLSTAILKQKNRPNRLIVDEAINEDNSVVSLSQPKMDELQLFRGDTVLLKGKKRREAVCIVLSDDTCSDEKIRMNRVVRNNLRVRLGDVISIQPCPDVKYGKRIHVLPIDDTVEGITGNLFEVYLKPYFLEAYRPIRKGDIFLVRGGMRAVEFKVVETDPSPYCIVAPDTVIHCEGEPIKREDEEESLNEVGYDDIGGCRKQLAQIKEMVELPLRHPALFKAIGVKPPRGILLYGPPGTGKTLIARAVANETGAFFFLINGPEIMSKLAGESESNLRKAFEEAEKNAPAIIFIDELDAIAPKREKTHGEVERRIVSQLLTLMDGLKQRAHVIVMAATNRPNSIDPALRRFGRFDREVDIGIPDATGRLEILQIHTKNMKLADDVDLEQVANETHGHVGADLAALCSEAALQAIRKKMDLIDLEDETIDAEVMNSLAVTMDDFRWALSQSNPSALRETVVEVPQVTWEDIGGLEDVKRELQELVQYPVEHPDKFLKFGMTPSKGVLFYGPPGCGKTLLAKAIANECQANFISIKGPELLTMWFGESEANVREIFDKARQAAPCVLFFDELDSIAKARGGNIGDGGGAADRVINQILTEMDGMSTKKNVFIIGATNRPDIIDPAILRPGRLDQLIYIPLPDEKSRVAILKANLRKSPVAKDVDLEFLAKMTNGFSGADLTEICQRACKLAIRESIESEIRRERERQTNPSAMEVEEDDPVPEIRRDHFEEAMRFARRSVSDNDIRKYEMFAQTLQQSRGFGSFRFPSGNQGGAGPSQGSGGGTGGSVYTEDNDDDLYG

[9] = target: Ras and Rab interactor 1/Tyrosine-protein kinase ABL1 (Homo sapiens, UniProt P00519+Q13671); test: biochemical; type: functional;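 also: biochemical TR-FRET dose-response test measuring inhibition of binding between Rin1 and Abl proteins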
Sequence of Ras and Rab interactor 1/Tyrosine-protein kinase ABL1 (P00519 whole entry): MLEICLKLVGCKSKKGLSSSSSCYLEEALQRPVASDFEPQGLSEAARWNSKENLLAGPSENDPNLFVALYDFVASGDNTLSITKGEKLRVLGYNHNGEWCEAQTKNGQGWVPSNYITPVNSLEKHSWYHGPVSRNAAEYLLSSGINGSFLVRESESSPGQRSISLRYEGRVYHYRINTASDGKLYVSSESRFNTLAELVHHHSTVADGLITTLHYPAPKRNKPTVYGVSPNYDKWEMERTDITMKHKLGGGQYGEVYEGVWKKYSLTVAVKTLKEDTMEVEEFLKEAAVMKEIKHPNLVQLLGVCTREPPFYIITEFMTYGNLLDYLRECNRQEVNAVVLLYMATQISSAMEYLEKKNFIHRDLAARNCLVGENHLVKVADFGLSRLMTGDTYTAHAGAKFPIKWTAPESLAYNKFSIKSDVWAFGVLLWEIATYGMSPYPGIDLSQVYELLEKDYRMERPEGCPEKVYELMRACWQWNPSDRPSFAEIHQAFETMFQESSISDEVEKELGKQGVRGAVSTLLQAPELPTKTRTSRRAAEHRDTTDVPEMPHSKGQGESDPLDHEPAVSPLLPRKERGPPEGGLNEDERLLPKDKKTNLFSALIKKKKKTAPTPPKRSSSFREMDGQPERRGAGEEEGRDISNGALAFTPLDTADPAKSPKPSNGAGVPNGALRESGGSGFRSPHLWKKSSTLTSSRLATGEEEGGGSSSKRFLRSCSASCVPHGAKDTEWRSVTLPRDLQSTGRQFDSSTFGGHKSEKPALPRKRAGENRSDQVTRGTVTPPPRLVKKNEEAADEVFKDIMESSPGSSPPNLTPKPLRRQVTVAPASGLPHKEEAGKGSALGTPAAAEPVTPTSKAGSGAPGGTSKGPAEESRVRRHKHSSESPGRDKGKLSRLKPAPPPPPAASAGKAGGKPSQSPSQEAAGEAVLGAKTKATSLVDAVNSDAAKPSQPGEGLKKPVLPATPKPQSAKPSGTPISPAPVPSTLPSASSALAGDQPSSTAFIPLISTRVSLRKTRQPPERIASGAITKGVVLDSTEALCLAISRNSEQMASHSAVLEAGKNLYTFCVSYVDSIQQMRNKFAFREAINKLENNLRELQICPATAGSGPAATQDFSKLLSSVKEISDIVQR
Sequence of Ras and Rab interactor 1/Tyrosine-protein kinase ABL1 (Q13671 whole entry): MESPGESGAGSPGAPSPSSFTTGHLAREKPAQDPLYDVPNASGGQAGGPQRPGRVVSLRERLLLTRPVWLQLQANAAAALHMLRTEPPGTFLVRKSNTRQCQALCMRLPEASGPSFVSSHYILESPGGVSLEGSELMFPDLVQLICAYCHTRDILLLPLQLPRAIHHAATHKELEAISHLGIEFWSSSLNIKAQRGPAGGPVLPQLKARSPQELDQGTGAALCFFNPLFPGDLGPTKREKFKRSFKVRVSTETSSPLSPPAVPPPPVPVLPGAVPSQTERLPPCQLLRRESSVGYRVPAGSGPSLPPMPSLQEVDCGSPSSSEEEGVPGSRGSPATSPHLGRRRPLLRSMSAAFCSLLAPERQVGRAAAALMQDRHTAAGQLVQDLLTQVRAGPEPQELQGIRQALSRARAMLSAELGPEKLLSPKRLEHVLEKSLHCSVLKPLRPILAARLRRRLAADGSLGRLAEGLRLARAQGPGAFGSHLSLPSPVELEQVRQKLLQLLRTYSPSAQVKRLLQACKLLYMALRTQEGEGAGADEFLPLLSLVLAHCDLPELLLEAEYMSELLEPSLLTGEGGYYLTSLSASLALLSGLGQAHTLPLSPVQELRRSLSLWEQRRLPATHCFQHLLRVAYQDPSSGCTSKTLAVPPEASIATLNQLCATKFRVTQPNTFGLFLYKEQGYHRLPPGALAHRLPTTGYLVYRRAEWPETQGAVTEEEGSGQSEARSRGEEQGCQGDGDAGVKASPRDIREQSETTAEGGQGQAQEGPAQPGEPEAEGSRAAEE

[10] = target: Transitional endoplasmic reticulum ATPase (Homo sapiens, UniProt P55072, C522A); test: C522A mutant p97 ATPase inhibitors, dose response, counter-screen for p97 inhibitor project, biochemical, luminescence (AID 1544)
Sequence of Transitional endoplasmic reticulum ATPase (Homo sapiens, UniProt P55072, C522A) (P55072 2-806 C522A limits assumed): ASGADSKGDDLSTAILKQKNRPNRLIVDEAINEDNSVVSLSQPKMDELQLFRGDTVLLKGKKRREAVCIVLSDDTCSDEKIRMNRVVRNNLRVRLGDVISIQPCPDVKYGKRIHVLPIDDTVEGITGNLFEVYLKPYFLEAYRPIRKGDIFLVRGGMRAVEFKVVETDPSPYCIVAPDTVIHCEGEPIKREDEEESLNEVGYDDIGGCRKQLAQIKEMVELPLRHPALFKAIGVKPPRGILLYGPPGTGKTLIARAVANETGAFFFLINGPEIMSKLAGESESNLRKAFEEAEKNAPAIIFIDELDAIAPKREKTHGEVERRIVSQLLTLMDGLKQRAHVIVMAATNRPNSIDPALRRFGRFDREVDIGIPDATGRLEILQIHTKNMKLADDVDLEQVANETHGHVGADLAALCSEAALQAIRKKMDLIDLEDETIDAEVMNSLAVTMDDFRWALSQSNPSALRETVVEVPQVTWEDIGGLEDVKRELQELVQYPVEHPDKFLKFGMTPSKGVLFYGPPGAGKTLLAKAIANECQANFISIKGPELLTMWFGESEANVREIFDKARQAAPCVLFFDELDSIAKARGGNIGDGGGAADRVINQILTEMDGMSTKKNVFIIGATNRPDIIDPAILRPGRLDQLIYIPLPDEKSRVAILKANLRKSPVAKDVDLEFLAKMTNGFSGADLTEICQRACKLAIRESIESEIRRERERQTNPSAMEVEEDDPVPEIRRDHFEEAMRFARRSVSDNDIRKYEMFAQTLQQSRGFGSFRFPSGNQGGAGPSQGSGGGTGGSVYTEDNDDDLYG

Caspase-6 = target: T3, Caspase-6 (Homo sapiens, UniProt P55212); test: human caspase-6 inhibitors, dose response, biochemical, VEID-R110 fluorescence, cherry-pick (AID 720632)
T3 sequence (P55212 whole entry): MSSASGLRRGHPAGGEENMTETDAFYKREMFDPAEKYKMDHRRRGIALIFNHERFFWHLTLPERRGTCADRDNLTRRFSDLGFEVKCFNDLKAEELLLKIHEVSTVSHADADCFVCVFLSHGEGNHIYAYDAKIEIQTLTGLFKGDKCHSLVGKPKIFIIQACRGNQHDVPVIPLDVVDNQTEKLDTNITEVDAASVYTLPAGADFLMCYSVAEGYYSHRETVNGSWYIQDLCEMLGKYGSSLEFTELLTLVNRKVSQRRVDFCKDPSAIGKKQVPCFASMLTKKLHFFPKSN

Structure (SMILES): Cn1c(=O)[nH]c(=O)c2c1nc([N+](=O)[O-])n2Cc1ccccc1
- IC50 [1]: 0.785 µM (active)
- IC50 (HEK293): 13.7 µM (active)
- AC50 [2]: 5.91 µM (active)
- AC50 [3]: 1.9 µM (active)
- IC50 [4]: > 25 µM (inactive)
- CC50 [5]: 3.23 µM (active)
- IC50 (Interleukin-8): 3.5 µM (active)
- AC50 [6]: 4.52 µM (active)
- IC50 (Beta Lactamase): > 49.8 µM (inactive)
- AC50 (Paired box protein Pax-8): 3.81 µM (active)
- CC50 [7]: 6.75 µM (active)

Structure (SMILES): O=C(NC1(O)C(=O)c2ccccc2C1=O)c1c(Cl)cccc1Cl
- IC50 [8]: > 50 µM (not active)
- IC50 [9]: 21 µM (inactive)
- IC50 [10]: > 50 µM (not active)

Structure (SMILES): CCN(c1ccccc1)c1cc2ccccc2c(=O)[nH]1
- AC50 (Caspase-6): 5.45 µM (active)
